A value given as a limit tells only on which side of the number the result lay.

This assay concerns the target bovine cardiac myofibrils (full-length cardiac myosin ATPase in the native sarcomere) (Bos taurus (Bovine), UniProt Q9BE39). Kind of assay: Skinned bovine cardiac myofibril ATPase assay (PK/LDH-coupled). The following applies: Ca2+ activating to 75% of maximal rate; for CDMF75 IC15: concentration giving 15% inhibition; for IC50: read-out: CDMF75 IC50. In kind it is biochemical. In short, it runs like this:
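Inhibition of steady-state ATPase read at 340 nm through a PK/LDH-coupled NADH system (0.5 mM NADH, 1.5 mM PEP). Detergent-skinned bovine cardiac myofibrils, 1 mg/mL, were tested at pH 6.8 in PIPES/MgCl2 with 50 μM ATP and calcium adjusted to give pCa50 or pCa75 activation.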

Chain of bovine cardiac myofibrils (full-length cardiac myosin ATPase in the native sarcomere) (Q9BE39 whole entry): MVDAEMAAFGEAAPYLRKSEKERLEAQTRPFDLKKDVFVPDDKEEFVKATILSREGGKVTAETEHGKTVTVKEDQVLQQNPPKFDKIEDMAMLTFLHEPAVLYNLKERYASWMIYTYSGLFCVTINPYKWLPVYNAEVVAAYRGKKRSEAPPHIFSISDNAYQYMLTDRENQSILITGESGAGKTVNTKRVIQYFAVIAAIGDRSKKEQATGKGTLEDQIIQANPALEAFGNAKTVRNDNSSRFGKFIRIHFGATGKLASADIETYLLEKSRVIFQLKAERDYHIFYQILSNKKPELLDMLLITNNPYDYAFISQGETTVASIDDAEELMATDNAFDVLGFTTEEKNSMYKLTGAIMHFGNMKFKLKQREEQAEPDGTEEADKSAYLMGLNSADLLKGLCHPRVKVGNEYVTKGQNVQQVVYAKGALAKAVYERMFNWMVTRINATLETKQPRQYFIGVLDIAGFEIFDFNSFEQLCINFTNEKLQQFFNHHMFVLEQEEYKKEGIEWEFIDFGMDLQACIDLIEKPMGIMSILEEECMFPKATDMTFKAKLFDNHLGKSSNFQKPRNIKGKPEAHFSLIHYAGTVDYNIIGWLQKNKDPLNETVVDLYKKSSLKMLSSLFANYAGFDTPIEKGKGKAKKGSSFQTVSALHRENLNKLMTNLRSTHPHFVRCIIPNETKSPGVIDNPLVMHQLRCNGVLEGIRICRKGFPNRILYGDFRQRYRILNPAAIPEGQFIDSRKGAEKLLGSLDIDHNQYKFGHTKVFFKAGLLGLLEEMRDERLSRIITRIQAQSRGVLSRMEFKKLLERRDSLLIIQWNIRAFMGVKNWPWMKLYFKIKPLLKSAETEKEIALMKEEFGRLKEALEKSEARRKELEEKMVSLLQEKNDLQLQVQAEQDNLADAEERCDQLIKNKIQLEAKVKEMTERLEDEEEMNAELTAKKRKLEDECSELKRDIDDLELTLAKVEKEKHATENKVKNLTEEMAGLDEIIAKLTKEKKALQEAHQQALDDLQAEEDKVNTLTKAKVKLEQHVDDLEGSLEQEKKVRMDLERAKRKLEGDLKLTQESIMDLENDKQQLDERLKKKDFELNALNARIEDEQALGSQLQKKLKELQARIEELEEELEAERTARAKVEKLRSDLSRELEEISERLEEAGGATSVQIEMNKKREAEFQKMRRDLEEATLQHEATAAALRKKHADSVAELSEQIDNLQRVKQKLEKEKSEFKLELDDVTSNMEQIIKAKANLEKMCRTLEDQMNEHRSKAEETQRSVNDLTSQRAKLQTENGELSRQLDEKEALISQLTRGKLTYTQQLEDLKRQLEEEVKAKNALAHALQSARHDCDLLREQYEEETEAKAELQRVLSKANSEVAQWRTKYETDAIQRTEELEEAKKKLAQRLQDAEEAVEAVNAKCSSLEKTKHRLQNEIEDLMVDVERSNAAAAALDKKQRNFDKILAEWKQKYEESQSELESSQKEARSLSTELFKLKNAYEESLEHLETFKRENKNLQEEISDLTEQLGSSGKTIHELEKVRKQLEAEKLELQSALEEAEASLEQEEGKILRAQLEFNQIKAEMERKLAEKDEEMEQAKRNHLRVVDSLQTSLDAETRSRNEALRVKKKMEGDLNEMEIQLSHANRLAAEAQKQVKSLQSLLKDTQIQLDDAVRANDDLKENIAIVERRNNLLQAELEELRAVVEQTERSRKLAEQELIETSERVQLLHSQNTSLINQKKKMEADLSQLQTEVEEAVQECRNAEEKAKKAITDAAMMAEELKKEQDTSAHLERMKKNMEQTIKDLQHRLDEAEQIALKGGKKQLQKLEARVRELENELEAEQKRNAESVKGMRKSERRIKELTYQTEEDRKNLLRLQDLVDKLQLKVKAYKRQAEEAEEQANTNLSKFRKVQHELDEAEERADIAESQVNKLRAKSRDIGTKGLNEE
Chain of bovine cardiac myofibrils (full-length cardiac myosin ATPase in the native sarcomere) (P85100 whole entry partner): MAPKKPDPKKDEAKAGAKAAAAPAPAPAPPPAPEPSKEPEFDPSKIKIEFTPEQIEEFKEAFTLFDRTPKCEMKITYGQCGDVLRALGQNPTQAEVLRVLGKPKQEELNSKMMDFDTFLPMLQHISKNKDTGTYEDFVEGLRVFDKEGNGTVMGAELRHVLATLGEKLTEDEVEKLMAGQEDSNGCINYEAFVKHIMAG
Chain of bovine cardiac myofibrils (full-length cardiac myosin ATPase in the native sarcomere) (Q3SZE5 whole entry partner): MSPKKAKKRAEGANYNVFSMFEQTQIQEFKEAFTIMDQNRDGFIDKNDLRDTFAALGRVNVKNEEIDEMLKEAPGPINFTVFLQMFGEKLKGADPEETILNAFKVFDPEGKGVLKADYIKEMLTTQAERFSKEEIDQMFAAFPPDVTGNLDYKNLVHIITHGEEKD

By IC50 is commonly meant the concentration needed to halve the response being measured. Consider `Cc1nc(-c2ccc3c(c2)CC[C@H]3NC(=O)c2cnn(C)c2)no1` [Compound 66, (R)-1-methyl-N-(5-(5-methyl-1,2,4-oxadiazol-3-yl)-2,3-dihydro-1H-inden-1-yl)-1H-pyrazole-4-carboxamide], for which the “CDMF75 IC15” value amounted to 1200 nM and the IC50 is 4500 nM.

As to `COCc1nc(-c2ccc3c(c2)CC[C@H]3NC(=O)c2c[nH]nc2C)no1` [Compound 397, (R)-N-(5-(5-(methoxymethyl)-1,2,4-oxadiazol-3-yl)-2,3-dihydro-1H-inden-1-yl)-3-methyl-1H-pyrazole-4-carboxamide], the “CDMF75 IC15” value was determined as 900 nM and the IC50 was 3200 nM. In the case of `Cc1nc(-c2ccc3c(c2)CC[C@H]3NC(=O)c2ocnc2C)no1` [Compound 449, (R)-4-methyl-N-(5-(5-methyl-1,2,4-oxadiazol-3-yl)-2,3-dihydro-1H-inden-1-yl)oxazole-5-carboxamide], the “CDMF75 IC15” value is 500 nM and the IC50 worked out at 1500 nM. Turning to `Cc1ncc(C(=O)N[C@@H]2CCc3cc(-c4noc(C(F)F)n4)ccc32)n1C` [Compound 678, (R)-N-(5-(5-(difluoromethyl)-1,2,4-oxadiazol-3-yl)-2,3-dihydro-1H-inden-1-yl)-1,2-dimethyl-1H-imidazole-5-carboxamide], the “CDMF75 IC15” value stood at 700 nM and the IC50 stood at 2300 nM. For `COCc1nc(-c2ccc3c(c2)CC[C@H]3NC(=O)c2cccc([C@H](C)O)c2)no1` [Compound 728, 3-((S)-1-hydroxyethyl)-N-((R)-5-(5-(methoxymethyl)-1,2,4-oxadiazol-3-yl)-2,3-dihydro-1H-inden-1-yl)benzamide], in that order: 800 nM and 3800 nM. For `CCc1nc(-c2ccc3c(c2)CC[C@H]3NC(=O)c2cnn(C)c2C)no1` [Compound 571, (R)-N-(5-(5-ethyl-1,2,4-oxadiazol-3-yl)-2,3-dihydro-1H-inden-1-yl)-1,5-dimethyl-1H-pyrazole-4-carboxamide], in that order: 400 nM and 1300 nM. For `CCc1cc(-c2ccc3c(c2)CC[C@H]3NC(=O)c2cnn(C)c2)no1` [Compound 413, (R)-N-(5-(5-ethylisoxazol-3-yl)-2,3-dihydro-1H-inden-1-yl)-1-methyl-1H-pyrazole-4-carboxamide], in that order: 400 nM and 1500 nM.

Turning to `Cc1nc(-c2ccc3c(c2)OCC3NC(=O)c2ccccc2)no1` (stereo not drawn) [Compound 15, N-(6-(5-methyl-1,2,4-oxadiazol-3-yl)-2,3-dihydrobenzofuran-3-yl)benzamide], the “CDMF75 IC15” value worked out at 600 nM and the IC50 amounted to 2000 nM. Take `Cc1c(C(=O)N[C@@H]2COc3cc(-c4noc(C(F)F)n4)ccc32)cnn1C` [Compound 210, (S)-N-(6-(5-(difluoromethyl)-1,2,4-oxadiazol-3-yl)-2,3-dihydrobenzofuran-3-yl)-1,5-dimethyl-1H-pyrazole-4-carboxamide]: the “CDMF75 IC15” value came to 500 nM and the IC50 was found to be 1600 nM. Regarding `Cc1nn(C)cc1C(=O)NC1COc2cc(-c3noc(C(F)F)n3)ccc21` (stereo not drawn) [Compound 207, N-(6-(5-(difluoromethyl)-1,2,4-oxadiazol-3-yl)-2,3-dihydrobenzofuran-3-yl)-1,3-dimethyl-1H-pyrazole-4-carboxamide], the “CDMF75 IC15” value turned out to be 1000 nM and the IC50 was 3600 nM.

Take `CCc1nc(-c2ccc3c(c2)CC[C@H]3NC(=O)c2ccc(=O)[nH]c2)no1` [Compound 603, (R)-N-(5-(5-ethyl-1,2,4-oxadiazol-3-yl)-2,3-dihydro-1H-inden-1-yl)-6-oxo-1,6-dihydropyridine-3-carboxamide]: the “CDMF75 IC15” value worked out at 300 nM and the IC50 is 1000 nM. Consider `[2H]C([2H])([2H])c1nc(-c2ccc3c(c2)CC[C@H]3NC(=O)C(F)F)no1` [Compound 442, (R)-2,2-difluoro-N-(5-(5-(methyl-d3)-1,2,4-oxadiazol-3-yl)-2,3-dihydro-1H-inden-1-yl)acetamide], for which the “CDMF75 IC15” value came to 2500 nM and the IC50 is 12600 nM. Taken in the same sequence, the figures for `[2H]C([2H])([2H])c1nc(-c2ccc3c(c2)CC[C@H]3NC(=O)c2ccc(=O)n(C)c2)no1` [Compound 646, (R)-1-methyl-N-(5-(5-(methyl-d3)-1,2,4-oxadiazol-3-yl)-2,3-dihydro-1H-inden-1-yl)-6-oxo-1,6-dihydropyridine-3-carboxamide] were 2200 nM and 9000 nM. In the case of `C=Cn1cc(C(=O)N[C@@H]2CCc3cc(-c4noc(CC)n4)ccc32)cn1` [Compound 527, (R)-N-(5-(5-ethyl-1,2,4-oxadiazol-3-yl)-2,3-dihydro-1H-inden-1-yl)-1-vinyl-1H-pyrazole-4-carboxamide], the “CDMF75 IC15” value was 300 nM and the IC50 came to 1100 nM. For `Cn1cnc(C(=O)NC2CCc3cc(-c4noc(C(F)F)n4)ccc32)n1` (stereo not drawn) [Compound 118, N-(5-(5-(difluoromethyl)-1,2,4-oxadiazol-3-yl)-2,3-dihydro-1H-inden-1-yl)-1-methyl-1H-1,2,4-triazole-3-carboxamide], in that order: 19300 nM and greater than 39200 nM.

Turning to `Cn1cc(C(=O)N[C@@H]2CCc3cc(-c4noc(C(F)F)n4)ccc32)cn1` [Compound 186, (R)-N-(5-(5-(difluoromethyl)-1,2,4-oxadiazol-3-yl)-2,3-dihydro-1H-inden-1-yl)-1-methyl-1H-pyrazole-4-carboxamide], the “CDMF75 IC15” value is 700 nM and the IC50 amounted to 2400 nM.

Regarding `COC(=O)N[C@@H]1COc2cc(-c3noc(C4CC4)n3)ccc21` [Compound 348, methyl (S)-(6-(5-cyclopropyl-1,2,4-oxadiazol-3-yl)-2,3-dihydrobenzofuran-3-yl)carbamate], the “CDMF75 IC15” value worked out at 500 nM and the half-maximal inhibitory concentration (IC50) amounted to 1800 nM. With `Cc1cc(C(=O)NC2CCc3cc(-c4cc(C(F)F)no4)ccc32)ccn1` (stereo not drawn) [Compound 170, N-(5-(3-(difluoromethyl)isoxazol-5-yl)-2,3-dihydro-1H-inden-1-yl)-2-methylisonicotinamide], the “CDMF75 IC15” value is 3800 nM and the IC50 was 15900 nM.

As for `Cc1cc(C(=O)N[C@@H]2COc3cc(-c4noc(C)n4)cnc32)ccn1` [Compound 188, (S)-2-methyl-N-(6-(5-methyl-1,2,4-oxadiazol-3-yl)-2,3-dihydrofuro[3,2-b]pyridin-3-yl)isonicotinamide], the “CDMF75 IC15” value turned out to be 5300 nM and the IC50 came to 23600 nM. Taken in the same sequence, the figures for `[2H]C([2H])([2H])c1nc(-c2ccc3c(c2)OC[C@H]3NC(=O)c2cnn(C)c2C)no1` [Compound 269, (S)-1,5-dimethyl-N-(6-(5-(methyl-d3)-1,2,4-oxadiazol-3-yl)-2,3-dihydrobenzofuran-3-yl)-1H-pyrazole-4-carboxamide] were 1100 nM and 3500 nM.

For the molecule `Cc1nn(CCO)cc1C(=O)N[C@@H]1CCc2cc(-c3noc(C(F)F)n3)ccc21` [Compound 686, (R)-N-(5-(5-(difluoromethyl)-1,2,4-oxadiazol-3-yl)-2,3-dihydro-1H-inden-1-yl)-1-(2-hydroxyethyl)-3-methyl-1H-pyrazole-4-carboxamide], the “CDMF75 IC15” value is 900 nM and the IC50 worked out at 3100 nM. Regarding `CCc1nc(-c2ccc3c(c2)CC[C@H]3NC(=O)c2cnn(CCO)c2C)no1` [Compound 572, (R)-N-(5-(5-ethyl-1,2,4-oxadiazol-3-yl)-2,3-dihydro-1H-inden-1-yl)-1-(2-hydroxyethyl)-5-methyl-1H-pyrazole-4-carboxamide], the “CDMF75 IC15” value came to 500 nM and the IC50 is 1800 nM. Taken in the same sequence, the figures for `Cc1nc(-c2ccc3c(c2)OC[C@H]3NC(=O)c2cccc([C@H](C)O)c2)no1` [Compound 734, 3-((S)-1-hydroxyethyl)-N-((S)-6-(5-methyl-1,2,4-oxadiazol-3-yl)-2,3-dihydrobenzofuran-3-yl)benzamide] were 800 nM and 4100 nM. For `CCc1nc(-c2ccc3c(c2)CC[C@H]3NC(=O)c2ccncc2C)no1` [Compound 629, (R)-N-(5-(5-ethyl-1,2,4-oxadiazol-3-yl)-2,3-dihydro-1H-inden-1-yl)-3-methylisonicotinamide], the “CDMF75 IC15” value came to 2100 nM and the IC50 worked out at 9400 nM. In the case of `Cc1nn(C)cc1C(=O)NC1CCc2cc(-c3noc(C(C)C)n3)ccc21` (stereo not drawn) [Compound 75, N-(5-(5-isopropyl-1,2,4-oxadiazol-3-yl)-2,3-dihydro-1H-inden-1-yl)-1,3-dimethyl-1H-pyrazole-4-carboxamide], the “CDMF75 IC15” value came out at 900 nM and the IC50 was found to be 3100 nM. As for `CCc1nc(-c2ccc3c(c2)CCC3C(=O)Nc2cnn(C)c2)no1` (stereo not drawn) [Compound 482, 5-(5-ethyl-1,2,4-oxadiazol-3-yl)-N-(1-methyl-1H-pyrazol-4-yl)-2,3-dihydro-1H-indene-1-carboxamide], the “CDMF75 IC15” value stood at 3900 nM. Take `CCc1nc(-c2ccc3c(c2F)CC[C@H]3NC(=O)c2cnn(C)c2)no1` [Compound 562, (R)-N-(5-(5-ethyl-1,2,4-oxadiazol-3-yl)-4-fluoro-2,3-dihydro-1H-inden-1-yl)-1-methyl-1H-pyrazole-4-carboxamide]: the “CDMF75 IC15” value is 300 nM and the IC50 is 1000 nM. Consider `O=C(N[C@@H]1CCc2cc(-c3noc(C(F)F)n3)ccc21)c1cccc(CO)c1` [Compound 661, (R)-N-(5-(5-(difluoromethyl)-1,2,4-oxadiazol-3-yl)-2,3-dihydro-1H-inden-1-yl)-3-(hydroxymethyl)benzamide], for which the “CDMF75 IC15” value is 300 nM and the IC50 was found to be 1100 nM.

Regarding `CCc1nc(-c2ccc3c(c2)OC[C@H]3NC(=O)N2CC(O)C2)no1` [Compound 741, (S)-N-(6-(5-ethyl-1,2,4-oxadiazol-3-yl)-2,3-dihydrobenzofuran-3-yl)-3-hydroxyazetidine-1-carboxamide], the “CDMF75 IC15” value was 1900 nM and the IC50 amounted to 10500 nM.
